pKd: −log10 of the molar value.
Columns and labels:
[1] = target: T1, MAP4K3 (Homo sapiens, UniProt Q8IVH8); assay: KINOMEscan panel screen; assay type: binding; details: read-out: Percent Control(%)
T1 construct: purchased DiscoveRx KINOMEscan (Ambit Biosciences)

[2] = target: T2, YANK1 (Homo sapiens, UniProt Q8WU08); assay: KINOMEscan panel screen; assay type: binding; details: read-out: Percent Control(%)
T2 construct: purchased DiscoveRx KINOMEscan (Ambit Biosciences)

[3] = target: T3, PFTK1 (Homo sapiens, UniProt O94921); assay: KINOMEscan panel screen; assay type: binding; details: read-out: Percent Control(%)
T3 construct: purchased DiscoveRx KINOMEscan (Ambit Biosciences)

[4] = target: T4, TNNI3K (Homo sapiens, UniProt Q59H18); assay: KINOMEscan panel screen; assay type: binding; details: read-out: Percent Control(%)
T4 construct: purchased DiscoveRx KINOMEscan (Ambit Biosciences)
T4 sequence (Q59H18 whole entry): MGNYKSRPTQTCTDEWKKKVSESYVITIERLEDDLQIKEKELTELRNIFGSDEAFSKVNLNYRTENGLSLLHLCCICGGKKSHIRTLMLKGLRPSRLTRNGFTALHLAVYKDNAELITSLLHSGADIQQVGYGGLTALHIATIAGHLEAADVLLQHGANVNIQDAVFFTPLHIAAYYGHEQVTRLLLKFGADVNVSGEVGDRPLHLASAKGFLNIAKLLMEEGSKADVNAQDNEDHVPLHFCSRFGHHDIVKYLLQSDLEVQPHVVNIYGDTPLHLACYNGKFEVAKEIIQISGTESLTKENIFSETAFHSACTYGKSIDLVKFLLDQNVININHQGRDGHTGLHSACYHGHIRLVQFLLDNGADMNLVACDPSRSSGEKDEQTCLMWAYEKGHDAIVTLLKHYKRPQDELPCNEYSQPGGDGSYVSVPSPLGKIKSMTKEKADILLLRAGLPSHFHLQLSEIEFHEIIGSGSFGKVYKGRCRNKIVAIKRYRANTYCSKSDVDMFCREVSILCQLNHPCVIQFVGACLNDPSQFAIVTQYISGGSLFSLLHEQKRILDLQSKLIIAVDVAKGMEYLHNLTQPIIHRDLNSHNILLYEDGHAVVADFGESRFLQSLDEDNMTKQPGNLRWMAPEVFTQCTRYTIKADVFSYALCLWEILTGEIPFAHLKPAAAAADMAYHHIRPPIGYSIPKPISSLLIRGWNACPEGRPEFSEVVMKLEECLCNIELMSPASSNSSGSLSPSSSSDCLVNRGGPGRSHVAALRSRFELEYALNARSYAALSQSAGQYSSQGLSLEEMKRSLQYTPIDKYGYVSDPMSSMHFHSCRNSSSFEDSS

[5] = target: T5, LRRK2 (Homo sapiens, UniProt Q5S007); assay: KINOMEscan panel screen; assay type: binding; details: read-out: Percent Control(%)
T5 construct: purchased DiscoveRx KINOMEscan (Ambit Biosciences)

[6] = target: T6, EPHB2 (Homo sapiens, UniProt P29323); assay: KINOMEscan panel screen; assay type: binding; details: read-out: Percent Control(%)
T6 construct: purchased DiscoveRx KINOMEscan (Ambit Biosciences)
T6 sequence (P29323 19-1055): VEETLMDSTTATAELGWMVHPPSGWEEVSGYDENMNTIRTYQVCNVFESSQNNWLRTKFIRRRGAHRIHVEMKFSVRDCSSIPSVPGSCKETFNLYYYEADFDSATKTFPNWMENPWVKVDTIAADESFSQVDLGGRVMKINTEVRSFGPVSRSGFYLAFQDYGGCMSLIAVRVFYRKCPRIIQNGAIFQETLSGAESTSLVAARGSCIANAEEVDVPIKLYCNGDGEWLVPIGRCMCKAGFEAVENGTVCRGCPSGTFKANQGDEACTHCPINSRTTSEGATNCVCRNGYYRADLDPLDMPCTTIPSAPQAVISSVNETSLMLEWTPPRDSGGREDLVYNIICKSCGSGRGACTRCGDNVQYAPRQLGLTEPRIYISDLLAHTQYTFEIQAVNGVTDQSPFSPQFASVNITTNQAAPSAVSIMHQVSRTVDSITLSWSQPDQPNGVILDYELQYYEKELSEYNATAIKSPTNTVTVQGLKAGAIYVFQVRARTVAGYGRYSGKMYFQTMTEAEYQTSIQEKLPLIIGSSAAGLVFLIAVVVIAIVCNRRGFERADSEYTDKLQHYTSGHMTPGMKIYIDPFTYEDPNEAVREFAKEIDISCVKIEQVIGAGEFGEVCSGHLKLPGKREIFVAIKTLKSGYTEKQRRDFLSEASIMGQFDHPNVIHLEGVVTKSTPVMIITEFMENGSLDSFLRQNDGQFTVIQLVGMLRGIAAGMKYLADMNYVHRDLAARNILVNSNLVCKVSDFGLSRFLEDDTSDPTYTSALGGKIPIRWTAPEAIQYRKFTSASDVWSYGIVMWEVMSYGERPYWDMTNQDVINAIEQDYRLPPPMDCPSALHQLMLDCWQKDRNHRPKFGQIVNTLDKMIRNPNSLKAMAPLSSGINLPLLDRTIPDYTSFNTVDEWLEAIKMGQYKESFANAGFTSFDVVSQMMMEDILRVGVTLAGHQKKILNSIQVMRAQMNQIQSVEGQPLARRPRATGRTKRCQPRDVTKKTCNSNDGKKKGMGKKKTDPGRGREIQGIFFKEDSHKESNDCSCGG

[7] = target: T7, RPS6KA5(Kin.Dom.2-C-terminal) (Homo sapiens, UniProt O75582); assay: KINOMEscan panel screen; assay type: binding; details: read-out: Percent Control(%)
T7 construct: RPS6KA5(Kin.Dom.2-C-terminal); purchased DiscoveRx KINOMEscan (Ambit Biosciences)
T7 sequence (O75582 426-687 limits assumed): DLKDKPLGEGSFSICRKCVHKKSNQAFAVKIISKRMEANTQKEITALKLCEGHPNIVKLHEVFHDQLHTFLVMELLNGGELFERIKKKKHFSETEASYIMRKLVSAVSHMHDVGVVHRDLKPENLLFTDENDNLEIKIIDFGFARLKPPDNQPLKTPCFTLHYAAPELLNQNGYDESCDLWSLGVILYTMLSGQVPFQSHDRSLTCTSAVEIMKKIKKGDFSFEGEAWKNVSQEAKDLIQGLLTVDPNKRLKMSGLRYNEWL

[8] = target: T8, KIT-autoinhibited (Homo sapiens, UniProt P10721); assay: KINOMEscan panel screen; assay type: binding; details: read-out: Percent Control(%)
T8 construct: purchased DiscoveRx KINOMEscan (Ambit Biosciences)

[9] = target: T9, PRKD2 (Homo sapiens, UniProt Q9BZL6); assay: KINOMEscan panel screen; assay type: binding; details: read-out: Percent Control(%)
T9 construct: purchased DiscoveRx KINOMEscan (Ambit Biosciences)

[10] = target: T10, TAOK2 (Homo sapiens, UniProt Q9UL54); assay: KINOMEscan panel screen; assay type: binding; details: read-out: Percent Control(%)
T10 construct: purchased DiscoveRx KINOMEscan (Ambit Biosciences)

[11] = target: T11, AURKA (Homo sapiens, UniProt O14965); assay: KINOMEscan panel screen; assay type: binding; details: read-out: Percent Control(%)
T11 construct: purchased DiscoveRx KINOMEscan (Ambit Biosciences)

[12] = target: T12, ADCK4 (Homo sapiens, UniProt Q96D53); assay: KINOMEscan panel screen; assay type: binding; details: read-out: Percent Control(%)
T12 construct: purchased DiscoveRx KINOMEscan (Ambit Biosciences)
T12 sequence (Q96D53 whole entry): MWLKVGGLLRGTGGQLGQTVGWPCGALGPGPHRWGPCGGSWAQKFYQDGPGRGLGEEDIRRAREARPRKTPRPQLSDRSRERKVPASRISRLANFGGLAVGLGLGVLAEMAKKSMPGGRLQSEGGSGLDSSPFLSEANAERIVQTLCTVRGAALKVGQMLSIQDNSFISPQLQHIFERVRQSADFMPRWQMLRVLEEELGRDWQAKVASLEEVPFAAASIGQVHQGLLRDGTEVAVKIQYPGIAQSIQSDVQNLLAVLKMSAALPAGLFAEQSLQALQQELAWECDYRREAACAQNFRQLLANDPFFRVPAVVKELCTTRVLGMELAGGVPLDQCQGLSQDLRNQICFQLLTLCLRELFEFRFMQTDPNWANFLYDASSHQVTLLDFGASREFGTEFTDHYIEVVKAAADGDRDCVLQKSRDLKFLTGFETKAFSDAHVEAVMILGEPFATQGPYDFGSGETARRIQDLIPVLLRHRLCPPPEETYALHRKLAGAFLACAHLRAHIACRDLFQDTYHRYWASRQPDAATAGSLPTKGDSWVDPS

[13] = target: T13, EPHA5 (Homo sapiens, UniProt P54756); assay: KINOMEscan panel screen; assay type: binding; details: read-out: Percent Control(%)
T13 construct: purchased DiscoveRx KINOMEscan (Ambit Biosciences)

[14] = target: T14, EGFR(G719S) (Homo sapiens, UniProt P00533, G719S); assay: KINOMEscan panel screen; assay type: binding; details: read-out: Percent Control(%)
T14 construct: purchased DiscoveRx KINOMEscan (Ambit Biosciences)

[15] = target: T15, CAMK1G (Homo sapiens, UniProt Q96NX5); assay: KINOMEscan panel screen; assay type: binding; details: read-out: Percent Control(%)
T15 construct: purchased DiscoveRx KINOMEscan (Ambit Biosciences)
T15 sequence (Q96NX5 whole entry): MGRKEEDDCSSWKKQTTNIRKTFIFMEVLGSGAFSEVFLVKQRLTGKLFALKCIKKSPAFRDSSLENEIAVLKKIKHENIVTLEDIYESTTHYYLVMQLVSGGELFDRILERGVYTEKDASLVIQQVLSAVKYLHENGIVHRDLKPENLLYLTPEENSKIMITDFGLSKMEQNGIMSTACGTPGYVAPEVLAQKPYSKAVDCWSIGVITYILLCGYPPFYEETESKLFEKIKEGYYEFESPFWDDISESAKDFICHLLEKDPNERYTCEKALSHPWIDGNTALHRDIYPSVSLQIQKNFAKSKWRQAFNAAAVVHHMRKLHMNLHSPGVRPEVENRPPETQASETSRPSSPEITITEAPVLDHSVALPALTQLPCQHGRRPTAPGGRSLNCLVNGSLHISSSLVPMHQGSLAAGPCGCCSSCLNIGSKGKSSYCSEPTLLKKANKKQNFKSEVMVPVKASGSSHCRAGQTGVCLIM

[16] = target: T16, ABL1(F317L)-nonphosphorylated (Homo sapiens, UniProt P00519, F317L); assay: KINOMEscan panel screen; assay type: binding; details: read-out: Percent Control(%)
T16 construct: purchased DiscoveRx KINOMEscan (Ambit Biosciences)
T16 sequence (P00519 229-512 F317L limits assumed): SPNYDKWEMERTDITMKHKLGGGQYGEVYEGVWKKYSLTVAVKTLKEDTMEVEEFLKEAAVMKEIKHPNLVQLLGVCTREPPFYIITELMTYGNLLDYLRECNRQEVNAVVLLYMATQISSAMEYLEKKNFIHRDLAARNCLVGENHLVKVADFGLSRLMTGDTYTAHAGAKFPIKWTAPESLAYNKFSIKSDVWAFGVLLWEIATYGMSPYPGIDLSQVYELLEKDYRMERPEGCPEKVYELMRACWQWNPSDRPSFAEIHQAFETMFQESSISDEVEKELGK

[17] = target: T17, TRKC (Homo sapiens, UniProt Q16288); assay: KINOMEscan panel screen; assay type: binding; details: read-out: Percent Control(%)
T17 construct: purchased DiscoveRx KINOMEscan (Ambit Biosciences)

[18] = target: T18, BUB1 (Homo sapiens, UniProt O43683); assay: KINOMEscan panel screen; assay type: binding; details: read-out: Percent Control(%)
T18 construct: purchased DiscoveRx KINOMEscan (Ambit Biosciences)

[19] = target: T19, MARK4 (Homo sapiens, UniProt Q96L34); assay: KINOMEscan panel screen; assay type: binding; details: read-out: Percent Control(%)
T19 construct: purchased DiscoveRx KINOMEscan (Ambit Biosciences)

[20] = target: ERBB2 (Homo sapiens, UniProt P04626); assay: KINOMEscan panel screen; assay type: binding; details: read-out: Percent Control(%)
[21] = target: T20, FGFR2 (Homo sapiens, UniProt P21802); assay: KINOMEscan panel screen; assay type: binding; details: read-out: Percent Control(%)
T20 construct: purchased DiscoveRx KINOMEscan (Ambit Biosciences)
T20 sequence (P21802 22-821): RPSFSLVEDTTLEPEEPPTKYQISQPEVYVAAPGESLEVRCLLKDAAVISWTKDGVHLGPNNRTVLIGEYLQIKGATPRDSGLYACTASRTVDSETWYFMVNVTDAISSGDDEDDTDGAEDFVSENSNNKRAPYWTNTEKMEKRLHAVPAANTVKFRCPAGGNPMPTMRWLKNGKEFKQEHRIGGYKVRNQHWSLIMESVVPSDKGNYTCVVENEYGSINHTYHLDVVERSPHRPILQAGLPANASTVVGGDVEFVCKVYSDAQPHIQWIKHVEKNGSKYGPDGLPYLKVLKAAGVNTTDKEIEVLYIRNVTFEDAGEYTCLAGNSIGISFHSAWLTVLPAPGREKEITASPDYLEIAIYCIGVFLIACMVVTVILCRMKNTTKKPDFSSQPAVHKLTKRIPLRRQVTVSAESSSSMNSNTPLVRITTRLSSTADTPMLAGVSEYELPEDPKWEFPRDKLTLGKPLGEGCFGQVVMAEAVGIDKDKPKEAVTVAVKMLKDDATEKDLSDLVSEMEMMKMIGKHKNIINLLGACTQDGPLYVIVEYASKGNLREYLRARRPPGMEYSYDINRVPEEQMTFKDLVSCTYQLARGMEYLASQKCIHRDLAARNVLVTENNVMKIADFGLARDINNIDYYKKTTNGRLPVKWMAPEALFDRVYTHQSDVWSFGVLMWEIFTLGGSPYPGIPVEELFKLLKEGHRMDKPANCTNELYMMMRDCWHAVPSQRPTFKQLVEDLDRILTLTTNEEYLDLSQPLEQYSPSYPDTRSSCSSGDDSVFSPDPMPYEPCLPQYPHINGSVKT

[22] = target: T21, HCK (Homo sapiens, UniProt P08631); assay: KINOMEscan panel screen; assay type: binding; details: read-out: Percent Control(%)
T21 construct: purchased DiscoveRx KINOMEscan (Ambit Biosciences)

[23] = target: ERN1 (Homo sapiens, UniProt O75460); assay: KINOMEscan panel screen; assay type: binding; details: read-out: Percent Control(%)
[24] = tested on: MV4-11 cells; assay: Apoptosis assay (AnnexinV/PI staining); assay type: cell-based, human; details: 3 nM
Description: PI staining was used to detect the cell cycle status. […] The induction of apoptosis following treatment of MV4-11 cells was examined by AnnexinV/PI staining assays.
Flow cytometry was used for cell cycle and apoptosis assays. MV4-11 cells were treated with SKLB-677 for 24 h, and then the cells were harvested and washed with PBS. Cell Cycle and Apoptosis Analysis Kit (Beyotime) was used for cell cycle analysis and the Annexin V-FITC & PI Cell Apoptosis Analysis Kit (KeyGENE BioTECH) was used for apoptosis assays. The data was analyzed using FLOWJO software (V7.6.5).
Figure 2 SKLB-677 inhibited FLT3 activation and induced cell cycle arrest and apoptosis. (a) MV4-11 cells were treated with various concentrations of SKLB-677 or 0.1% DMSO for 1 h. The phosphorylation levels of FLT3 and downstream signal proteins were assessed using antibodies against total FLT3 (FLT3), phosphorylated Y589/591 FLT3 (p-FLT3), total STAT5 (STAT5), phosphorylated Y694 STAT5 (p-STAT5), total p44/42 MAPK (Erk1/2), and phosphorylated Y202/204 p44/42 MAPK (p-Erk1/2). β-actin was used as a loading control. (b) Primary PBMCs isolated from AML patients (FLT3-ITD positive) were treated with various concentrations of SKLB-677 or 0.1% DMSO for 6 h. The phosphorylation levels of FLT3 and downstream signal proteins were detected used the same method as that in panel a. […]

[25] = target: T22, FGFR3 (Homo sapiens, UniProt P22607); assay: KINOMEscan panel screen; assay type: binding; details: read-out: Percent Control(%)
T22 construct: purchased DiscoveRx KINOMEscan (Ambit Biosciences)
T22 sequence (P22607 23-806): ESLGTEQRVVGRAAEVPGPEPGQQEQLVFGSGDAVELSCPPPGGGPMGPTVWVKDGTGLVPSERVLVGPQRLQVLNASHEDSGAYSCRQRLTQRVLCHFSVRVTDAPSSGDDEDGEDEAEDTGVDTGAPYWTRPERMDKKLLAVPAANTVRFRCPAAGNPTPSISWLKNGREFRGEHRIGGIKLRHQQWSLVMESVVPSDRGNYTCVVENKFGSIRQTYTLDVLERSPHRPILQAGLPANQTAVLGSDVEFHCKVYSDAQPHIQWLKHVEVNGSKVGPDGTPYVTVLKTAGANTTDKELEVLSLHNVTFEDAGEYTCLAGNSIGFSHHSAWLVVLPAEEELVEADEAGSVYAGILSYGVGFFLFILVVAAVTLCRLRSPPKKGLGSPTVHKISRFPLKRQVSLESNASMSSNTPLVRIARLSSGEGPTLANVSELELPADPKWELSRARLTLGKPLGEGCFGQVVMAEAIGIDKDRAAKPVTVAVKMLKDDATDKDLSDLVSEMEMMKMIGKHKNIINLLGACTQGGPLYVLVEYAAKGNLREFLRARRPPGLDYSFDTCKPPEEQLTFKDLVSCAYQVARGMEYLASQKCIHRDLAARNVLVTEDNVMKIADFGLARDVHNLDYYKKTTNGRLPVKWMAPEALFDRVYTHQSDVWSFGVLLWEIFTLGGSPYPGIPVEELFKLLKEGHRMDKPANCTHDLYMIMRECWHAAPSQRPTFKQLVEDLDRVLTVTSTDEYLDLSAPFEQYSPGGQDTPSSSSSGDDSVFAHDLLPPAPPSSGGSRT

[26] = target: T23, TLK1 (Homo sapiens, UniProt Q9UKI8); assay: KINOMEscan panel screen; assay type: binding; details: read-out: Percent Control(%)
T23 construct: purchased DiscoveRx KINOMEscan (Ambit Biosciences)

[27] = target: CDK2 (Homo sapiens, UniProt P24941); assay: KINOMEscan panel screen; assay type: binding; details: read-out: Percent Control(%)
[28] = target: LCK (Homo sapiens, UniProt P06239); assay: KINOMEscan kinase binding assay (Kd)
[29] = target: T24, PRKG2 (Homo sapiens, UniProt Q13237); assay: KINOMEscan panel screen; assay type: binding; details: read-out: Percent Control(%)
T24 construct: purchased DiscoveRx KINOMEscan (Ambit Biosciences)

[30] = target: T25, CIT (Homo sapiens, UniProt O14578); assay: KINOMEscan panel screen; assay type: binding; details: read-out: Percent Control(%)
T25 construct: purchased DiscoveRx KINOMEscan (Ambit Biosciences)

[31] = target: T26, MAP3K1 (Homo sapiens, UniProt Q13233); assay: KINOMEscan panel screen; assay type: binding; details: read-out: Percent Control(%)
T26 construct: purchased DiscoveRx KINOMEscan (Ambit Biosciences)

**Q.** CC(C)(C)c1cc(NC(=O)Nc2ccc(Oc3ncnc4[nH]ncc34)c(F)c2)no1 [SKLB-677, 1-(4-(1H-pyrazolo[3,4-d]pyrimidin-4-yloxy)-3-fluorophenyl)-3-(5-tert-butylisoxazol-3-yl)urea] was tested. Which remaining binding at 10 µM [1] did it give?
**A.** The remaining binding at 10 µM was 3.2%.

**Q.** And the remaining binding at 10 µM [2]?
**A.** Its remaining binding at 10 µM is 88%.

**Q.** What about the remaining binding at 10 µM [3] of the same molecule?
**A.** The remaining binding at 10 µM was 0.05%.

**Q.** And the remaining binding at 10 µM [4]?
**A.** The remaining binding at 10 µM was 0%.

**Q.** And the remaining binding at 10 µM [5]?
**A.** Its remaining binding at 10 µM is 52%.

**Q.** And the remaining binding at 10 µM [6]?
**A.** The remaining binding at 10 µM was 5.2%.

**Q.** And the remaining binding at 10 µM [7]?
**A.** The remaining binding at 10 µM was 100%.

**Q.** And the remaining binding at 10 µM [8]?
**A.** The remaining binding at 10 µM was 1.1%.

**Q.** And the remaining binding at 10 µM [9]?
**A.** The remaining binding at 10 µM was 28%.

**Q.** What about the remaining binding at 10 µM [10] of the same molecule?
**A.** Its remaining binding at 10 µM is 0.35%.

**Q.** What about the remaining binding at 10 µM [11] of the same molecule?
**A.** Its remaining binding at 10 µM is 35%.

**Q.** And the remaining binding at 10 µM [12]?
**A.** The remaining binding at 10 µM was 100%.

**Q.** And the remaining binding at 10 µM [13]?
**A.** Its remaining binding at 10 µM is 0.7%.

**Q.** And the remaining binding at 10 µM [14]?
**A.** The remaining binding at 10 µM was 47%.

**Q.** What about the remaining binding at 10 µM [15] of the same molecule?
**A.** Its remaining binding at 10 µM is 48%.

**Q.** What about the remaining binding at 10 µM [16] of the same molecule?
**A.** The remaining binding at 10 µM was 10%.

**Q.** What about the remaining binding at 10 µM [17] of the same molecule?
**A.** Its remaining binding at 10 µM is 0.05%.

**Q.** What about the remaining binding at 10 µM [18] of the same molecule?
**A.** The remaining binding at 10 µM was 66%.

**Q.** And the remaining binding at 10 µM [19]?
**A.** Its remaining binding at 10 µM is 70%.

**Q.** What about the remaining binding at 10 µM [20] of the same molecule?
**A.** The remaining binding at 10 µM was 100%.

**Q.** What about the remaining binding at 10 µM [21] of the same molecule?
**A.** Its remaining binding at 10 µM is 2%.

**Q.** And the remaining binding at 10 µM [22]?
**A.** The remaining binding at 10 µM was 0.5%.

**Q.** What about the remaining binding at 10 µM [23] of the same molecule?
**A.** The remaining binding at 10 µM was 100%.

**Q.** What about the “apoptosis of AML cells” value [24] of the same molecule?
**A.** Its value is “about 50%”.

**Q.** What about the remaining binding at 10 µM [25] of the same molecule?
**A.** The remaining binding at 10 µM was 12%.

**Q.** And the remaining binding at 10 µM [26]?
**A.** The remaining binding at 10 µM was 75%.

**Q.** What about the remaining binding at 10 µM [27] of the same molecule?
**A.** Its remaining binding at 10 µM is 1.6%.

**Q.** What about the pKd [28] of the same molecule?
**A.** Its pKd is 6.89.

**Q.** And the remaining binding at 10 µM [29]?
**A.** The remaining binding at 10 µM was 100%.

**Q.** What about the remaining binding at 10 µM [30] of the same molecule?
**A.** The remaining binding at 10 µM was 16%.

**Q.** What about the remaining binding at 10 µM [31] of the same molecule?
**A.** Its remaining binding at 10 µM is 36%.

Reference: publication PMC4620497 (Scientific Reports, 2015)
